In patent publication US20090111778A1, “2-Keto-Oxazoles as Modulators of Fatty Acid Amide Hydrolase” (priority 2005, published 2009):
Counter-ions that a name gives are not always drawn.

Legend:
rat FAAH = target: T1, rat FAAH (Rattus norvegicus, UniProt P97612); test: Assay Method 2: FAAH assay, hydrolysis of 3H-anandamide by homogenate of SK-N-MC cells transfected with rat FAAH; format: biochemical; details: T84 or transfected SK-N-MC cell homogenate, 3H-AEA tracer 80 nM, rt 1 h, pH 9
T1 construct: expressed in transfected cells
T1 sequence (P97612 1-579): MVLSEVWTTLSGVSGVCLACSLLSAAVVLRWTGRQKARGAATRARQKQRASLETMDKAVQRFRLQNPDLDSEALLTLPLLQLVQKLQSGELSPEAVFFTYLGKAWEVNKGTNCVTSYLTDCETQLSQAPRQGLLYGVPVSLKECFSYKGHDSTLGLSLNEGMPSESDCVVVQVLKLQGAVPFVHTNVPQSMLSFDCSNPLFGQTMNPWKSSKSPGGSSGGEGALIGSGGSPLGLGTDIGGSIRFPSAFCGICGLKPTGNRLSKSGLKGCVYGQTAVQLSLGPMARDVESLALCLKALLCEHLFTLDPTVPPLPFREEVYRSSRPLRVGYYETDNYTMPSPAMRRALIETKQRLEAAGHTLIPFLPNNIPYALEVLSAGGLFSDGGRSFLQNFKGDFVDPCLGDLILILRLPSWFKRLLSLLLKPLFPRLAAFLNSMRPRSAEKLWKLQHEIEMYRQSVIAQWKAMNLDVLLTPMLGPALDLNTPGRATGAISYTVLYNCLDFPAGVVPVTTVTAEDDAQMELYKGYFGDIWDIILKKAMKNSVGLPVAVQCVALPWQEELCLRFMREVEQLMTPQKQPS
Outline: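 SK-N-MC cells stably transfected with rat FAAH cDNA (electroporation, G418 selection); homogenate hydrolyses 3H-anandamide. Reaction 1 h at rt, then filtered through activated charcoal; unbound labelled ethanolamine in filtrate counted by scintillation.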

human FAAH = target: T2, human FAAH (Homo sapiens, UniProt O00519); test: Assay Method 1: FAAH assay, hydrolysis of 3H-anandamide by homogenate of SK-N-MC cells transfected with human FAAH; format: biochemical; details: human FAAH; T84 or transfected SK-N-MC cell homogenate; 3H-AEA tracer 80 nM; rt 1 h; pH 9; read-out: Assay 1 IC50
T2 construct: expressed in transfected cells
T2 sequence (O00519 1-579): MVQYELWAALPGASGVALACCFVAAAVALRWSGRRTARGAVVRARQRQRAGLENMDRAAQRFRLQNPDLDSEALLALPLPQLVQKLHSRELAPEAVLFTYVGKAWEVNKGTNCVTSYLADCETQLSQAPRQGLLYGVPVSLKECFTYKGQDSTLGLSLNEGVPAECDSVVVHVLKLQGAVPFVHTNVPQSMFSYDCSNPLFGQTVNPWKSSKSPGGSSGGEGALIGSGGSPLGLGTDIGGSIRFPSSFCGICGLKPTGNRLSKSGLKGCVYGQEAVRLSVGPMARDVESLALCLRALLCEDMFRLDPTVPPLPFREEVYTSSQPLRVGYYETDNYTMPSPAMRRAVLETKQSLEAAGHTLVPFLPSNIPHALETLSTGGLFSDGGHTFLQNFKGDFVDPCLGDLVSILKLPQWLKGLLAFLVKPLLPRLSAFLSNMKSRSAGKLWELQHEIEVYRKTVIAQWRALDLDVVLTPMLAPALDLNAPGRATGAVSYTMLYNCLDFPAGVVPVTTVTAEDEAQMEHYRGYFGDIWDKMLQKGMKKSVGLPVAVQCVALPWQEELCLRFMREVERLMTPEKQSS
Outline: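 Homogenate of SK-N-MC cells stably expressing human FAAH (G418-selected clones) incubated with compound and 80 nM [1-3H-ethanolamine]anandamide for 1 h at rt. Released 3H-ethanolamine separated from substrate by activated-charcoal filtration, then counted by scintillation.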

Compound `CC(C)c1cccc(CN2CCC(CCCC(=O)c3ncco3)CC2)c1` [Example 140, 4-[1-(3-Isopropyl-benzyl)-piperidin-4-yl]-1-oxazol-2-yl-butan-1-one] has an IC50 (rat FAAH) of 3 nM and an IC50 (human FAAH) of 1 nM.

`O=C(O)c1cccc(-c2cnc(C(=O)CCCC3CCN(Cc4cccc(-c5ccccc5)c4)CC3)o2)n1` [Example 149, 6-{2-[4-(1-Biphenyl-3-ylmethyl-piperidin-4-yl)-butyryl]-oxazol-5-yl}-pyridine-2-carboxylic acid trifluoroacetic acid salt] gave an IC50 (rat FAAH) of 2 nM and an IC50 (human FAAH) of 9 nM.

`CC(c1ccccc1)N1CCC(CCCC(=O)c2ncco2)CC1` (stereo not shown) [Example 142, 1-Oxazol-2-yl-4-[1-(1-phenyl-ethyl)-piperidin-4-yl]-butan-1-one] showed an IC50 (rat FAAH) of 3000 nM and an IC50 (human FAAH) of 190 nM.

In the case of `O=C(CCCC1CCN(S(=O)(=O)c2ccc(F)cc2)CC1)c1ncco1` [Example 55, 4-[1-(4-Fluoro-benzenesulfonyl)-piperidin-4-yl]-1-oxazol-2-yl-butan-1-one], the IC50 (rat FAAH) is reported as 95 nM and the IC50 (human FAAH) is reported as 905 nM.

Work on `O=C(CCCC1CCN(C(=O)CCc2ccc(Oc3ccccc3)cc2)CC1)c1ncco1` [Example 37, 1-Oxazol-2-yl-4-{1-[3-(4-phenoxy-phenyl)-propionyl]-piperidin-4-yl}-butan-1-one] yielded an IC50 (rat FAAH) of 18 nM and an IC50 (human FAAH) of 22 nM.

With `O=C(CCCC1CCN(C(=O)OCc2ccccc2)CC1)c1ncco1` [Example 63, 4-(4-Oxazol-2-yl-4-oxo-butyl)-piperidine-1-carboxylic acid benzyl ester] the IC50 (rat FAAH) was 2 nM and the IC50 (human FAAH) was 3 nM.

`O=C(CCCC1CCN(Cc2ccc(-c3ccccc3)cc2)CC1)c1ncco1` [Example 73, 4-(1-Biphenyl-4-ylmethyl-piperidin-4-yl)-1-oxazol-2-yl-butan-1-one] was tested, and the IC50 (rat FAAH) was 45 nM and the IC50 (human FAAH) was 24 nM.

In the case of `CC(C)Oc1ccc(CN2CCC(CCCC(=O)c3ncco3)CC2)cc1` [Example 23, 4-[1-(4-isopropoxy-benzyl)-piperidin-4-yl]-1-oxazol-2-yl-butan-1-one], the IC50 (rat FAAH) is reported as 31 nM and the IC50 (human FAAH) is reported as 14 nM.

Work on `O=C(CCCC1CCN(Cc2ccc(Br)nc2)CC1)c1ncco1` [Example 76, 4-[1-(6-Bromo-pyridin-3-ylmethyl)-piperidin-4-yl]-1-oxazol-2-yl-butan-1-one] yielded an IC50 (rat FAAH) of 650 nM and an IC50 (human FAAH) of 400 nM.

`O=C(CCCC1CCN(Cc2ccc(F)c(F)c2)CC1)c1ncco1` [Example 115, 4-[1-(3,4-Difluoro-benzyl)-piperidin-4-yl]-1-oxazol-2-yl-butan-1-one] gave an IC50 (rat FAAH) of 750 nM and an IC50 (human FAAH) of 78 nM.

`O=C(CCCC1CCN(Cc2ccc(-c3ccsc3)nc2)CC1)c1ncco1` [Example 111, 1-Oxazol-2-yl-4-[1-(6-thiophen-3-yl-pyridin-3-ylmethyl)-piperidin-4-yl]-butan-1-one] gave an IC50 (rat FAAH) of 193 nM and an IC50 (human FAAH) of 15 nM.

For `O=C(CCCC1CCN(C(=O)CCC2CCCCC2)CC1)c1ncco1` [Example 50, 4-[1-(3-Cyclohexyl-propionyl)-piperidin-4-yl]-1-oxazol-2-yl-butan-1-one], the IC50 (rat FAAH) was 10 nM and the IC50 (human FAAH) was 2 nM.

Work on `CC(C)(C)OC(=O)N1CCC(CCCC(=O)c2ncc(-c3ccccn3)o2)CC1` [Example 119, 4-[4-Oxo-4-(5-pyridin-2-yl-oxazol-2-yl)-butyl]-piperidine-1-carboxylic acid tert-butyl ester] yielded an IC50 (rat FAAH) of 3 nM and an IC50 (human FAAH) of 0.8 nM.

In the case of `O=C(CCCC1CCN(C(=O)Cc2cccc(Cl)c2)CC1)c1ncco1` [Example 41, 4-{1-[2-(3-Chloro-phenyl)-acetyl]-piperidin-4-yl}-1-oxazol-2-yl-butan-1-one], the IC50 (rat FAAH) is reported as 712 nM and the IC50 (human FAAH) is reported as 640 nM.

Compound `O=C(CCCC1CCN(Cc2cccc(Br)n2)CC1)c1ncco1` [Example 77, 4-[1-(6-Bromo-pyridin-2-ylmethyl)-piperidin-4-yl]-1-oxazol-2-yl-butan-1-one] has an IC50 (rat FAAH) of 1000 nM and an IC50 (human FAAH) of 313 nM.

In the case of `O=C(CCCC1CCN(Cc2ccc(C(F)(F)F)c(F)c2)CC1)c1ncco1` [Example 137, 4-[1-(3-Fluoro-4-trifluoromethyl-benzyl)-piperidin-4-yl]-1-oxazol-2-yl-butan-1-one], the IC50 (rat FAAH) is reported as 380 nM and the IC50 (human FAAH) is reported as 10 nM.

`O=C(CCCC1CCN(Cc2cc(F)ccc2F)CC1)c1ncco1` [Example 113, 4-[1-(2,5-Difluoro-benzyl)-piperidin-4-yl]-1-oxazol-2-yl-butan-1-one] was tested, and the IC50 (rat FAAH) was 318 nM and the IC50 (human FAAH) was 28 nM.

Work on `O=C(CCCC1CCN(Cc2ccncc2)CC1)c1ncco1` [Example 6, 1-Oxazol-2-yl-4-(1-pyridin-4-ylmethyl-piperidin-4-yl)-butan-1-one] yielded an IC50 (rat FAAH) of 550 nM and an IC50 (human FAAH) of 359 nM.

`CC(C)CC(=O)N1CCC(CCCC(=O)c2ncco2)CC1` [Example 26, 3-Methyl-1-[4-(4-oxazol-2-yl-4-oxo-butyl)-piperidin-1-yl]-butan-1-one] was tested, and the IC50 (rat FAAH) was 900 nM and the IC50 (human FAAH) was 400 nM.

With `Cc1ccccc1CCC(=O)N1CCC(CCCC(=O)c2ncco2)CC1` [Example 45, 1-Oxazol-2-yl-4-[1-(3-o-tolyl-propionyl)-piperidin-4-yl]-butan-1-one] the IC50 (rat FAAH) was 130 nM and the IC50 (human FAAH) was 109 nM.

`CC(C)OC(=O)N1CCC(CCCC(=O)c2ncco2)CC1` [Example 69, 4-(4-Oxazol-2-yl-4-oxo-butyl)-piperidine-1-carboxylic acid isopropyl ester] was tested, and the IC50 (rat FAAH) was 9 nM and the IC50 (human FAAH) was 4 nM.

`O=C(CCCC1CCN(Cc2ccccc2)CC1)c1ncc(-c2ccco2)o1` [Example 121, 4-(1-Benzyl-piperidin-4-yl)-1-(5-furan-2-yl-oxazol-2-yl)-butan-1-one] showed an IC50 (rat FAAH) of 323 nM and an IC50 (human FAAH) of 258 nM.

For `O=C(CCCC1CCN(Cc2ccc(Cl)nc2)CC1)c1ncco1` [Example 75, 4-[1-(6-Chloro-pyridin-3-ylmethyl)-piperidin-4-yl]-1-oxazol-2-yl-butan-1-one], the IC50 (rat FAAH) was 1000 nM and the IC50 (human FAAH) was 600 nM.
